The record followed here is patent US20230141603A1, “BENZODIAZEPINE DERIVATIVES AS GABA A GAMMA1 PAM” (Hoffmann-La Roche Inc., priority 2021, published 2023).

This assay deals with T1, h-GABAA α1β3γ2 (Homo sapiens, UniProt P14867+P18507).
T1 construct: expressed in transfected cells; host or cells: HEK293F cells, membranes
As to the kind of experiment: Radioligand binding assay, [3H]Flumazenil competition, HEK293F membranes. Conditions: for γ2/γ1 Selectivity Ratio / LogSel: Table 1; for γ2/γ1 Selectivity Ratio: Ki α1β3γ2 (nM)/Ki α2β2γ1 (nM); for LogSel: Log[Ki α1β3γ2 (nM)/Ki α2β2γ1 (nM)]. As to the method: The affinity of compounds at GABAA γ2 subunit-containing receptors was measured by competition for [^3H]Flumazenil (81.1 Ci/mmol; Roche) binding to HEK293F cells expressing human (transiently transfected) receptors of composition α1β3γ2.
Harvested pellets from HEK293F cells expressing the different GABAA γ2 receptor subtypes were resuspended in Mannitol Buffer pH 7.2-7.4 and processed as described above for the cells expressing the GABAA γ1 subunit-containing receptors.
Assays were incubated to equilibrium for 1 hour at 4° C. and harvested onto GF/C uni-filters (Packard) by filtration using a Packard harvester and washing with ice-cold wash buffer (50 mM Tris; pH 7.5). After drying, filter-retained radioactivity was detected by liquid scintillation counting. Ki values were calculated using Excel-Fit (Microsoft) and are the means of two determinations.

For `COc1nnc2n1-c1ccc(Cl)c(Cl)c1C(c1c(F)cccc1F)=NC2` [Example 90, 7,8-dichloro-6-(2,6-difluorophenyl)-1-methoxy-4H-[1,2,4]triazolo[4,3-a][1,4]benzodiazepine], the Ki – broadly, a dissociation constant, usually derived from enzyme kinetics or from competition with a known ligand – stood at 305 nM; the “γ2/γ1 Selectivity Ratio” value is listed as 52.8; the LogSel was 1.72.
The corresponding values for `Fc1cccc(F)c1C1=NCc2nncn2-c2ccc(C(F)(F)F)c(Cl)c21` [Example 37, 7-chloro-6-(2,6-difluorophenyl)-8-(trifluoromethyl)-4H-[1,2,4]triazolo[4,3-a][1,4]benzodiazepine] are 1180 nM, 28.5 and 1.45.
For `OCc1nnc2n1-c1ccc(Br)c(Cl)c1C(c1c(F)cccc1F)=NC2` [Example 33, [8-bromo-7-chloro-6-(2,6-difluorophenyl)-4H-[1,2,4]triazolo[4,3-a][1,4]benzodiazepin-1-yl]methanol] the same measures were 232 nM, 18.2 and 1.26.
